Laboratory results reported in PMC9455918, “Quinolizidines as Novel SARS-CoV-2 Entry Inhibitors” (International Journal of Molecular Sciences, 2022).
Read-outs that look alike come from different tables or passages of the source.

Key:
HIV-1NL4-3-nanoluc-sec [1] = conditions: previously described; ref [19],[20],[21],[22]; cited from earlier work
[2] = system: PA/Puerto Rico/8/1934 Influenza A Virus (PR8); conditions: cited from earlier work
cathepsin B = biological target: T1, cathepsin B (Homo sapiens, UniProt P07858); assay: Cathepsin B inhibitor assay kit (BPS bioscience); type: biochemical; conditions: for Inhibitory activity against cathepsin B: tested at 20 µM, duplicated experiment
T1 construct: purchased BPS bioscience 79590

cathepsin L = biological target: T2, cathepsin L (Homo sapiens, UniProt P07711); assay: Cathepsin L inhibitor assay kit (BPS bioscience); type: biochemical; conditions: tested at 20 µM, duplicated experiment
T2 construct: purchased BPS bioscience

in vitro = type: cell-based; conditions: human; concentration that reduced viability of 293T-ACE2 cells by 50%; 3 days
Procedure: The CellTiter-Glo® Luminescent Cell Viability Assay (Promega, Cat. # G7570 ) was used to determine the cytotoxicity of the aloperine derivatives. 293T-ACE2 cells were cultured in the presence of various concentrations of the compounds for 3 days. The cytotoxicity of the compounds was determined by following the protocol provided by the manufacturer. The 50% cytotoxic concentration (CC50) was defined as the concentration that caused a 50% reduction in cell viability.

[3] = system: Delta spike-pseudotyped virus; assay: microbe, parasite or virus in culture; type: cell-based; conditions: 293T-ACE2 cells
[4] = system: Omicron BA.4/BA.5 spike-pseudotyped virus; assay: microbe, parasite or virus in culture; type: cell-based; conditions: 293T-ACE2 cells
[5] = system: Omicron BA.2 spike-pseudotyped virus; assay: microbe, parasite or virus in culture; type: cell-based; conditions: 293T-ACE2 cells
[6] = system: PA/Puerto Rico/8/1934 Influenza A Virus (PR8); assay: microbe, parasite or virus in culture; type: cell-based; conditions: new compound 9, no reference given
HIV-1NL4-3-nanoluc-sec [7] = type: cell-based; conditions: new compound 9, no reference given; Inac = CC50/IC50 ratio < 5
[8] = system: murine leukemia virus envelope (MLV-env) pseudotyped virus; assay: microbe, parasite or virus in culture; type: cell-based; conditions: spike protein replaced with MLV-env, marked ** in Table 1
[9] = system: D614G spike-pseudotyped virus in 293T-ACE2 cells; type: cell-based; conditions: 5 µM, 2 h infection with D614G spike-pseudotyped virus
[10] = Severe acute respiratory syndrome coronavirus 2

T2 sequence (P07711 114-333): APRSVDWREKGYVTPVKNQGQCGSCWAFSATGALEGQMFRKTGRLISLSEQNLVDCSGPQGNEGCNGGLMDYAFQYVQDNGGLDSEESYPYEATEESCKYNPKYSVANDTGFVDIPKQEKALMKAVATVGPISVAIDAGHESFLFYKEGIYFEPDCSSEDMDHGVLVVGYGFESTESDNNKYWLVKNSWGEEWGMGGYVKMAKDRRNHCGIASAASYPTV

| Structure (SMILES) | IC50 (HIV-1NL4-3-nanoluc-sec [1]) [nM] | IC50 [2] [µM] | CC50 (in vitro) [µM] | also measured |
| --- | --- | --- | --- | --- |
| C1=C2CCCN[C@H]2[C@@H]2C[C@H]1[C@H]1CCCCN1C2 [Aloperine, aloperine, reference compound] | 1750 | 14.5 | > 20 | Inhibitory activity against cathepsin B (cathepsin B): inactive; Inhibitory activity against cathepsin L (cathepsin L): inactive |
| O=C(NCCCCCCN1CCCC2CC3CC(CN4CCCCC34)C21)c1c(F)cc(Br)cc1F (centres unmarked) [Compound 1] | > 20000 | 0.091 | > 20 |  |
| CCOC(=O)[C@H]1O[C@@H]1C(=O)N[C@@H](CC(C)C)C(=O)NCCC(C)C [Compound E64D, E64D, reference compound] |  |  |  | IC50 [3]: 450 ± 82 nM; IC50 [4]: 340 ± 81 nM; IC50 [5]: 370 ± 66 nM |
| Fc1ccc(CNCCCCN2CCCC3=CC4CC(CN5CCCCC45)C32)cc1 (centres unmarked) [Compound 9] |  |  | > 10 | IC50 [6]: 4.8 ± 1.4 µM; IC50, HIV-1NL4-3-nanoluc-sec (HIV-1NL4-3-nanoluc-sec [7]): Inac ^8 |
| CC(C)C[C@H](NC(=O)[C@H]1O[C@@H]1C(=O)O)C(=O)NCCCCN=C(N)N [Compound E64, E64, reference compound] |  |  |  | Inhibition of enzyme activity (cathepsin B) (cathepsin B; at 0.1 µM): more than 95% |
| O=C(NCCN1CCCC2=CC3CC(CN4CCCCC34)C21)c1ccccc1F (centres unmarked) [Compound 2] | > 25000 | 5.5 |  |  |
| O=C(NCCCCCCCC(=O)N1CCCC2=CC3CC(CN4CCCCC34)C21)c1ccc(OC(F)(F)F)cc1 (centres unmarked) [Compound 8] | > 20000 | > 28.5 | > 20 | IC50, HIV-1NL4-3-nanoluc-sec (HIV-1NL4-3-nanoluc-sec [1]): inactive; IC50, PA/Puerto Rico/8/1934 Influenza A Virus (PR8) [2]: inactive |
| C1=C2CCCN(CCCCNCc3ccccc3)C2C2CC1C1CCCCN1C2 (centres unmarked) [Compound 5] | 960 | > 40 | > 20 | IC50 ([8]; Murine leukemia virus, read-out: Antiviral activity (IC50) against MLV-env pseudotyped virus): > 20 µM; Antiviral activity (IC50) against MLV-env pseudotyped virus [8]: inactive; IC50, PA/Puerto Rico/8/1934 Influenza A Virus (PR8) [2]: ineffective; IC50 [3, 10]: 580 ± 150 nM; IC50 [4, 10]: 860 ± 250 nM; Inhibitory activity against cathepsin B (cathepsin B): totally inactive; Inhibitory activity against cathepsin B (cathepsin B; listed as compound 5): did not inhibit; Inhibitory activity against cathepsin L (cathepsin L): totally inactive; Inhibitory activity against cathepsin L (cathepsin L; listed as compound 5): did not inhibit; IC50 [5, 10]: 830 ± 210 nM; Spike protein (virus) puncta in 293T-ACE2 cells under confocal microscope [9]: observed as puncta |
| COc1ccc(C(=O)NCCCCN2CCCC3=CC4CC(CN5CCCCC45)C32)cc1 (centres unmarked) [Compound 6] | 11400 | > 20 | > 20 |  |
| CC(C)(C)c1ccc(C(=O)NCCCCCCN2CCCC3=CC4CC(CN5CCCCC45)C32)cc1 (centres unmarked) [Compound 7] | 800 | 0.83 | > 20 |  |
| C1=C2CCCN(CCCCCNCc3ccccc3)C2C2CC1C1CCCCN1C2 (centres unmarked) [Compound 4] | 840 | > 40 | > 20 |  |
| CCN(CC)CCCC(C)Nc1ccnc2cc(Cl)ccc12 (centres unmarked) [Chloroquine diphosphate, reference compound] |  |  |  | Spike protein (virus) puncta in 293T-ACE2 cells under confocal microscope [9]: no accumulation of viral puncta |
| O=C(Cc1ccc(S(=O)(=O)C(F)(F)F)cc1)NCCCCN1CCCC2=CC3CC(CN4CCCCC34)C21 (centres unmarked) [Compound 3] | 120 | > 20 | > 20 | IC50, PA/Puerto Rico/8/1934 Influenza A Virus (PR8) [2]: without anti-influenza virus activity |
